Assays:
HSV-1 = experiment: Virus plaque assay in HSV-1-infected Vero cells; type: cell-based, HSV-1 KOS strain; settings: Human alphaherpesvirus 1, read-out: IC50, HSV-1 replication, plaque assay
Protocol: Virus titer determination was carried out in 25-cm^2 flasks or 6-well plates with confluent Vero cells. The virus stock was serially diluted in Medium 199. 1 mL of each of the dilutions was added to the Vero cells in duplicates and incubated for 2h. Then the inoculum was aspirated and DMEM supplemented with 5% NBCS and 7.5 μg/mL human immunoglobulin (Sigma) was added. After two days the cells were washed twice with PBS and fixed with MeOH for 5 min at RT. Then 1:10 diluted KaryoMax Giemsa stain solution (Gibco) was added to the cells and incubated for 20 min at RT. Following washing with water the plaques were counted under the microscope and the titer was calculated. 4x10^5 Vero cells, 8x10^5 SH-SY5Y or 2x10^6 differentiated LUHMES (differentiation day 6) cells were seeded into 12-well plates. After 24h the cells were treated with compounds (as indicated in the figures) and after 1h they were infected with HSV-1 applying MOIs as described in the figures. After 20h (or at indicated time points) cells were either washed twice with PBS, then lysed in cold PBS/1% NP40 including the cOmplete EDTA-free protease inhibitor cocktail (Roche) and phosphatase inhibitor cocktail (Sigma) or virus was released by freeze-thawing and ultrasonic treatment for analysis in viral plaque assay (see above).

oxMIF = target: T1, oxMIF (Homo sapiens, UniProt P14174); experiment: 15N-HSQC NMR binding to H2O2-treated wild-type MIF (oxMIF)
T1 construct: made in house; host or cells: E. coli BL21-(DE3)-Rosetta-pLysS, pET11a-MIF, then H2O2 treatment
T1 sequence (P14174 2-115 limits assumed): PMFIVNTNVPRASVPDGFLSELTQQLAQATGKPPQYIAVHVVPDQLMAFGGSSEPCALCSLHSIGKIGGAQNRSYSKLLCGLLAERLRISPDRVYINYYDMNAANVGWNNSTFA
Protocol: The NMR F1-[^13C,^15N]-filtered-[^1H,^1H]-NOESY spectra for structure calculation were recorded on a 700 MHz Bruker Avance Neo spectrometer equipped with cryoprobe, and the ^15N-HSQC were recorded on a 600 MHz Bruker Avance III spectrometer equipped with cryoprobe. The filtered NOESY were recorded for MIF 1.0 mM and saturation of PAV-174, i.e., 1.0 mM of PAV-174. at 310K to reduce the rotational correlation time of the system, with two different mixing times 60 and 100ms; the free induction decay was measured for 106ms (2048 points) and the indirect dimension was set to 20ms (400 points); the signal acquisition was performed with 160 scans and the interscan delay was set to 1.5s. The ^15N-HSQC were measured at 298K with 121ms (2048 points) in the direct dimension and 53 ms (256 points) in the indirect dimension; the signal acquisition was performed through the accumulation of 16 scans and an interscan delay of 1s was applied. The cross-peaks corresponding to ligand-proteins were used to derive ligand-protein distant restraints using the initial rates of the normalized NOE intensity build-up curves.[91] […] The intermolecular distance restraints were kept semiambiguous, i.e., only the ligand signals were assigned, and the MIF- PAV-174 complex was calculated with the NMR^2 software[92] using the CYANA software for tortion angle dynamics structure calculation.

[1] = test system: tau phosphorylation and aggregation; experiment: Treatment of tgTau58/2 mice, tau phosphorylation and sarkosyl-insoluble tau in brain; type: in vivo; settings: tau58/2 mice
From the text: TgTau58/2 mice[44] that express the human 0N4R tau isoform with the P301Smutation under control of the mouse Thy1.2 promoter were a kind gift from Novartis (Boston, USA). Experimental animals were two months old, male, and heterozygous for the transgene. Wildtype littermates on C57BL/6J background served as control. The mice were maintained in pathogen-free conditions in the Animal Facility at the University of Düsseldorf, Germany, fed ad libitum with standard laboratory chow and water in ventilated cages under a 12h light/dark cycle. All experiments were in conformity with the Animal Protection Law approved by local authorities (LANUV NRW, Recklinghausen, Germany).
TgTau58/2 mice[44] were a kind gift from Novartis (Boston, USA). Two months-old males, heterozygous for the tau-P301S transgene (n = 12 per group), were either treated with 10% DMSO or 5 mg/kg body weight compound PAV-617 for four weeks administering 100 μL volumes intraperitoneally three times a week, after which animals were perfused with PBS and terminated. The brains were extracted cut into two-halves and flash frozen in liquid N2. One brain halve was homogenized in cold extraction buffer (10 mM Tris pH7.4, 1mM EGTA, 0.8M NaCl, 10% sucrose, 1x Protease inhibitor cocktail, 1x phosphatase inhibitor cocktail 2) to 10%. For screening 1% NP40, 0.1mg/mL DNAseI and 5 mM MgSO4 were added to the homogenates and after 30 min incubation on ice the protein concentration was determined using the DC Protein Assay Kit (Bio-Rad). Equal amounts of protein were then either directly used for detection of tau in the whole homogenate by immunoblot or sarkosyl insoluble tau was precipitated following a protocol of.[93] 750 μg lysate were centrifuged at 6,000g for 20 min at 4°C. Then the supernatant was carefully taken and sarkosyl was added to 1% end concentration. After an incubation for 1h at RT the samples were spun down at 100,000g for 1h at 4°C. The supernatants were removed and the pellets carefully washed with 200 μL extraction buffer without sucrose. […]

Structure (SMILES) | IC50 (HSV-1) [µM] | binding to redMIF and oxMIF (chemical shift perturbations) (oxMIF) | phosphorylated tau (AT8) in brain homogenates ([1]; 5 mg/kg) | phosphorylated tau (PHF-1) in the sarkosyl-insoluble fraction ([1]; 5 mg/kg) | HT7-normalized phosphorylated tau (PHF-1) in brain homogenates ([1]; 5 mg/kg i.p. three times a week for four weeks)
CCc1cc(N2CCCC2)cc2[s+]c3cc(N4CCCC4)cc(C)c3nc12.[I-] [PAV-174, 3,7-Di(pyrrolidine-1-yl) 1-ethyl-9-methyl-phenothiazin-5-ium iodide] | 0.034 | bound to both MIF species | – | – | –
[I-].c1cc2nc3ccc(N4CCCC4)cc3[s+]c2cc1N1CCCC1 [PAV-617, 3,7-Di(pyrrolidine-1-yl)phenothiazine-5-ium iodide] | – | – | reduced | Significantly less | reduced
